Laboratory results: paper PMC7876106 (Scientific Reports, 2021)

Tests used:
[1] = test system: TRF2 binding to telomere DNA; assay: DNA ChIP assay of TRF2 binding to telomere DNA in LOX cells; assay type: cell-based, human; settings: 2 μM, 2 days
Procedure: The lysates were sonicated, cleared by centrifugation, and supernatants were diluted 10 fold into IP Buffer (0.01% SDS, 1.1% Triton X-100, 1.2mM EDTA, 16.7mM Tris pH 8.1, 167mM NaCl, protease inhibitors cocktail, 50U/ml SUPERase•in) for IP reaction with rabbit IgG (Santa Cruz Biotechnology) or rabbit polyclonal anti-TRF2 (Pocono Rabbit Farm) at 4 ° C overnight. Each immune complex was collected by Dynal A beads (Invitrogen), washed five times (1 ml wash, 10 mins each) in ChIP related wash buffer at 4 ° C, eluted by addition of 200µl Elution buffer (10mM Tris, pH 8.0, 5mM EDTA, 1% SDS, 50U/ml SUPERase.In) at 70 °C for 20 mins, and the elutes were placed at 70 °C for 2 hrs to reverse cross-linking. […]
DNA ChIP assays was performed as described previously 3 with minor modifications. Briefly, 1 x 10^7 LOX cells treated with indicated chemicals (2 µM) for 48 hrs were subject to ChIP analysis and immunoprecipitated DNA was assayed by DNA dot-blot using 32P-labeled (TTAGGG)4 or Alu probe. […]

[2] = test system: TeloDNA antisense (5'-fluorescein) (DNA, single strand) CCCTAACCCTAACCCTAACCCTAA; assay: fluorescence polarization; settings: 150 mM salt (KCl, NaCl or LiCl; which not stated); 20 mM HEPES pH 7.5, room temperature, tRNA competitor; dilutions from 50 μM compound
[3] = test system: TeloDNA (5'-fluorescein) (DNA, G4) TTAGGGTTAGGGTTAGGGTTAGGG; assay: fluorescence polarization; settings: 150 mM KCl, NaCl or LiCl (salt not specified); 20 mM HEPES; 20 mM HEPES pH 7.5, room temperature, tRNA competitor added, 10 nM probe; apparent
[4] = test system: TERRA in U2OS cells; assay: TERRA levels by RNA dot blot in U2OS cells; assay type: cell-based; settings: ALT positive U2OS cells, 2 μM, 2 days
Procedure: LOX human melanoma cells[74],[101] were grown in complete RPMI (high glucose RPMI supplemented with 10% heat inactivated FBS, 100 I.U./mL Penicillin, and 100 μg/mL Streptomycin (Corning)). LOX cells inducibly expressing TRF2∆B protein were generated by lentiviral transduction. Cells were infected with lentiviral particles containing pInducer10L and pIND-MYC-TRF2∆B, and single cell clonal colonies were selected in 1 µg/mL puromycin. N-terminally Myc-tagged TRF2∆B protein was expressed in stable lines by induction with 1 µg/ml doxycycline at indicated days. Due to the instability of doxycycline in the culture, the culture medium will be replaced with fresh doxycycline every 2 days. […]
Homogenous Time Resolved Fluorescence (HTRF) assay
All material including peptide, nucleic acids and compounds were dissolved in buffer containing 20mM HEPES pH7.5 150mM KCl. […] The plate was incubated at room temperature for 30 minutes, following by adding 5µL of streptavidin-Tb-cryptate (Cisbio, PerkinElmer) and the plate was then incubated at room temperature for another 30 minutes before measured by EnVision plate reader (330/520 nm). […] The curves were analyzed using Prism 8.0. […]
Total RNA was isolated as previously described by using TRIzol reagent (Invitrogen) 1. […] RNA concentration was determined by Nanodrop-2000 (ThermoFisher). […]

[5] = molecular target: TeloDNA and TRF2 complex; assay: FP inhibition assay, TRF2 GAR binding to TeloDNA; settings: 10 nM peptide, 5 μM oligo
Procedure: (§1) All the nucleic acids, peptides and chemicals were dissolved in buffer containing 20 mM HEPES pH7.5, 150 mM salt (KCl, NaCl, LiCl) at the stock concentration of 1 mM. For peptide and nucleic acid interactions, 25μL of each nucleic acids with a sequential twofold dilutions starting from 50 μM was added into each well of 96-well plate followed by adding 25μL of 10 nM FITC labeled TRF2 peptide. For compounds and nucleic acid interactions, 20μL of each compounds with a sequential twofold dilutions starting from 50 μM were added into each well of 96-well plate followed by adding 5μL of 20 ng/mL tRNA and 25μL of 10 nM FAM labeled nucleic acids. For inhibition assay, 5μL FITC labeled TRF2 GAR peptide (10 nM final concentration) and 10 μL oligos (5 μM final concentration) were mixed, followed by adding 5μL of each compound with a sequential twofold dilutions starting from 50 μM into each well of 384-well plate. All components were mixed thoroughly, and the plate was incubated at room temperature for 1 h before placing in an Envision Plate Reader for reading at 495/520 nm. All data curves were fitted using Prism 8.0.

[6] = molecular target: EBNA1 G4 RNA; assay: FP assay, compound binding to EBNA1 G4 RNA
Procedure: as §1

[7] = molecular target: TERRA; assay: FP assay, compound binding to 5′ fluorescein-labeled TERRA; settings: 10 nM fluorescein-labeled probe, 3 independent experiments
Procedure: as §1

[8] = test system: TERRA in LOX cells; assay: TERRA levels by RNA dot blot and Northern blot in LOX cells; assay type: cell-based, human; settings: 2 μM, 3 days; for accumulation of TERRA as a shorter form: Northern blot
[9] = molecular target: G4 TeloDNA; assay: FP assay, compound binding to 5′ fluorescein-labeled TeloDNA; settings: 10 nM fluorescein-labeled probe, 3 independent experiments
Procedure: as §1

SMILES | effect on TRF2 binding to telomere DNA [1] | binding [2] | EC50 [3] [nM] | TERRA levels in U2OS cells [4] | IC50 [5] [nM] | EC50 [6] [nM] | binding to EBNA1 G4 RNA [6] | EC50 [7] [nM] | accumulation of TERRA as a shorter form [8] | EC50 [9] [nM] | total TERRA levels relative to PP control ([8]; RNA dot blot and Northern blot)
CN(C)c1ccc(Nc2c3ccc(NC(=O)CCN4CCCC4)cc3nc3cc(NC(=O)CCN4CCCC4)ccc23)cc1 [BRACO-19] | Neither NMM, PP, nor BRACO-19 had any significant effect | no | 3900 | reduced TERRA levels | 40 | 227 | high binding affinity | 7400 | not observed | 3900 | –
CCc1c(C)c2cc3nc(cc4nc(cc5c(CC)c(C)c(cc1[nH]2)n5C)C(C)=C4CCC(=O)O)C(CCC(=O)O)=C3C [NMM, N-methyl mesoporphyrin IX] | Neither NMM, PP, nor BRACO-19 had any significant effect | no | 4800 | reduced TERRA levels | 1000 | – | did not display any binding | 680 | accumulated as a shorter form | 4800 | reduced total TERRA levels
